Test results published in patent US20230364049A1, “COMBINATION OF P2Y6 INHIBITORS AND IMMUNE CHECKPOINT INHIBITORS” (VIB VZW, priority 2020, published 2023).

Tests used:
[1] = test system: murine bone marrow derived macrophages (BMDMs); assay: BMDM migration assay (Transwell, UDP as chemoattractant); assay type: cell-based; conditions: 10 μM MRS2578, 100 μM UDP in bottom chamber, 6 h, FIG. 4
Method: In the macrophage migration assays, 1×10^5 murine BMDMs were seeded on […] polycarbonate membranes (Transwell; Costar) with or without 10 μM MRS2578. The bottom chambers contained DMEM with or without 100 μM UDP, 100 μM Uridine (Sigma-Aldrich) or 100 μM Cytidine (Sigma-Aldrich), or alternatively, conditioned media from NT or CDA KD cells.
After 6 h incubation, the cells were removed from the top of each membrane with a cotton stick and migrated cells were fixed in 4% PFA, washed in PBS, stained with crystal violet (2.5 g/L) and Hoechst, and mounted on glass slides with ProLong Gold mounting medium without DAPI. Images were acquired with Olympus BX41 microscope and CellSense imaging software.

Panc02 tumors = assay: Subcutaneously implanted Panc02 tumor model, with FACS analysis of tumors; assay type: in vivo, mice
Method: 4×10^6 Panc02 cells were injected subcutaneously (s.c.) in the right flank of the mouse in a final suspension of 200 μI PBS. Tumor volumes were measured at least three times per week with a calliper and calculated using the formula: Volume (mm^3): ((Width(mm))^2×Length(mm))/2. 0.1×10^6 KPC1245 cells were injected orthotopically into the head of the pancreas in 20 μl of PBS.
(§1) Mice were randomized and treated, at indicated time points, intraperitoneally (i.p.) with 10 mg/kg of α-PD-1 (BioXcell) or control IgG from rat serum (Sigma-Aldrich), 3 mg/kg/day MRS2578 (Selleck Chemicals) or control vehicle. At the end stage, tumor weight was measured.
(§2) Mice were monitored and weighed continuously during the experiments. Mice showing symptoms of illness, that lost 20% of initial body weight, peritoneal leakage or with ulcerated tumors were sacrificed and excluded from the experiments. At the end stage, tumor weight was registered and samples were collected for histological examination, metabolomics and/or FACS/sorter analysis.
Tumor-bearing mice were sacrificed by cervical dislocation and perfused with saline to remove circulating immune cells. Tumors were harvested and minced in αMEM medium (Lonza) supplemented with 5% FBS, 1% Pen/Strep, 50 μM β-mercaptoethanol (Gibco), 5U/mL DNase I (Qiagen), 0.85 mg/mL Collagenase V (Collagenase from Clostridium histolyticum, Sigma-Aldrich), 1.25 mg/mL Collagenase D (Collagenase from Clostridium histolyticum, Roche) and 1 mg/mL Dispase II (Gibco) and incubated for 30 minutes at 37° C. The digested tissue was filtered using a 70 μm pore sized mesh strainer and cells were centrifuged 5 minutes at 300 xg. The samples were resuspended in Red Blood Cell Lysing Buffer Hybri-Max™ (Sigma-Aldrich) for 30 seconds, inactivated with FACS buffer (PBS containing 2% FBS and 2 mM EDTA) and centrifuged. The cell pellets were resuspended in FACS buffer and filtered with a 40 μm pore sized mesh strainer. Cells were resuspended in FACS buffer and for the intracellular measurement of interferon γ (IFN-γ) and granzyme B (GZMB), single-cell suspensions were culture in RPMI medium supplemented with 10% FBS, 1% glutamine, 1% Pen/Strep and stimulated with phorbol 12-myristate 13-acetate (PMA)/ionomycin Cell Stimulation Cocktail (eBioscience™, 1:500) in the presence of Brefeldin A (BioLegend®, 1:1000) or Monensin (eBioscience™, 1:1000) for 4 h at 37° C. Cells were then incubated for 15 minutes at 4° C. with Mouse BD Fc Block purified Rat Anti-Mouse CD16/CD32 mAb (BD Pharmingen™) and stained with the following antibodies for 30 minutes at 4° C.: Fixable viability dye (eFluor™ 506, eBioscience™), anti-CD45 (30-F11, APC-Cy7 or FITC, BioLegend®), anti-CD11b (M1/70, PerCP-Cy5.5, BioLegend®; eFluor™ 450, eBioscience™; or PE, BD Biosciences), anti-TCR-13 chain (H57-597, BV421, BD Biosciences), anti-CD4 (RM4-5, PE, BioLegend®), anti-CD8 (53-6.7, PE-Cy7, eBioscience™ or 53-6.7, APC-Cy7, BioLegend®), anti-CD69 (H1.2F3, APC, eBioscience™), anti-F4/80 (BM8, Alexa Fluor 488, eBioscience™; PerCP-Cy5.5, BioLegend®; or BV421, BioLegend®), anti-IFN-γ (XMG1.2, PE-Cy7, eBioscience™), anti-GZMB (GB11, Alexa Fluor 647, BioLegend®), anti-MHC-II (M5/114.15.2, APC, eBioscience™; or PerCP-eFluor 710, eBioscience™), anti-CD11c (N418, PE-Cy7, eBioscience™), anti-CD206 (MR5D3, Alexa Fluor 647, Bio-Rad), anti-Ly-6G (1A8, PE, BD Pharmingen™) anti-CD335 (NKp46) (29A1.4, APC, BioLegend®), anti-Foxp3 (FJK-16s, APC, eBioscience™) and anti-CD25 (PC61.5, PE-Cy7, eBioscience™). Cells were subsequently washed and resuspended in cold FACS buffer before FACS analysis or flow sorting by a FACS Verse or FACS Aria (BD Biosciences), respectively.

[2] = Tolerability / body weight of treated Panc02 tumor-bearing mice; assay type: in vivo; conditions: MRS2578 3 mg/kg/day i.p.; FIG. 7
Method: as §1, §2

[3] = Panc02 tumors, MRS2578 vs vehicle, FIG. 6

With `S=C=Nc1cccc(NC(=S)NCCCCNC(=S)Nc2cccc(N=C=S)c2)c1` [MRS2578, N,N-1,4-butanediylbis-N-(3-isothiocyanatophenyl) thiourea] the “Migration of BMDMs towards UDP” value [1] was “abrogated”, the “Migration of BMDMs towards UDP” value ([1]; listed as MRS 2578) was “specifically inhibited” and the Tumor volume (Panc02 tumors; MRS2578 3 mg/kg/day i.p. combined to α-PD-1 therapy (10 mg/kg i.p.), sc Panc02, FIG. 5) was “decrease”. For the same compound, the Tumor weight (Panc02 tumors; MRS2578 3 mg/kg/day i.p. combined to α-PD-1 therapy (10 mg/kg i.p.), sc Panc02, end stage, FIG. 5) was “decrease”, the “Infiltration of M2 polarized TAMs into Panc02 tumors” value (Panc02 tumors; Panc02 tumors, MRS2578) was “reduced infiltration” and the “Infiltration of tumor-associated macrophages (TAMs) into Panc02 tumors” value (Panc02 tumors; Panc02 tumors, MRS2578) was “Reduced infiltration”. For the same compound, the “Activation of CD8+ T cells in the tumors (GZMB, FACS)” value (Panc02 tumors; [3]) was “more activated”, the “M2 polarization of macrophages (CD206 expression by FACS)” value (Panc02 tumors; [3]) was “reduction of M2 polarization” and the “Harmful effect on mice (evolution of body weight)” value [2] was “no harmful effect”.
